Values after ≈ are worked out from the molar mass of the structure shown.
How the values were obtained:
C. coli ATCC33559 = test: Copper sulfate sensitivity dose–response assay in vitro (MIC/MBC); format: cell-based; settings: Campylobacter coli; for MIC: ATCC33559, read-out: MIC, C. coli (Table S4); for MBC: ATCC33559, 0.5 mM CuSO4, read-out: MBC, C. coli (Table S5)
Experimental: (§1) Campylobacter jejuni 81–176 was the primary model strain used for the selection of the potential Tat-dependent inhibitors by high-throughput screening. C. jejuni 81–176 is resistant to 0.5 and 1 mM CuSO4 (Supplementary Figure S1). C. jejuni 81–176 tatC knockout mutant (C. jejuni ΔtatC) was used to confirm the Tat-dependent inhibitory effect of the selected SM. C. jejuni ΔtatC is susceptible to 0.5 mM and higher of CuSO4 ([Rajashekara et al., 2009]). The specificity of the Tat-dependent inhibitors was also tested on 11 additional Campylobacter strains (C. coli ATCC33559 and 10 other C. jejuni strains isolated from chickens) and 7 commensal/beneficial bacteria (Supplementary Table S1). The […] (Au-13, Au-20, Au-38, Au-39, Au-47, Au-50, Au-24, Au-32, Au-44, and Au-45) were selected based on their single nucleotide polymorphism (SNP)-type and percent of prevalence in chickens ([Merchant-Patel et al., 2008]; [Kumar et al., 2016]). Additional details about the bacterial strains are shown in Supplementary Table S1.
(§2) In total, 19 SMs were two-fold serially diluted to obtain a final SM concentration ranging from 6.25 to 0.012 μg/mL. C. jejuni 81–176 was then treated with a determined concentration of SM, as described in the copper sensitivity assay. […] The lowest bactericidal SM concentration was considered the MBC (no increase in OD600 over time and no viable cells were recovered on agar plate after challenge) (N = 3 replicates per SM). […] However, these SMs were two-fold serially diluted to obtain a final SM concentration ranging from 5 μg to 0.0625 μg for testing (N = two independent experiments with four technical replicate for each SM).

C. jejuni Au-13 = test: as above; format: cell-based; settings: Campylobacter jejuni; for MIC: AU13, read-out: MIC, Au-13 (Table S4); for MBC: AU13, 0.5 mM CuSO4, read-out: MBC, Au-13 (Table S5)
Experimental: as §1, §2

C. jejuni Au-24 = test: as above; format: cell-based; settings: Campylobacter jejuni; for MIC: AU24, read-out: MIC, Au-24 (Table S4); for MBC: AU24, 0.5 mM CuSO4, read-out: MBC, Au-24 (Table S5)
Experimental: as §1, §2

C. jejuni Au-32 = test: as above; format: cell-based; settings: Campylobacter jejuni; for MIC: AU32, read-out: MIC, Au-32 (Table S4); for MBC: AU32, 0.5 mM CuSO4, read-out: MBC, Au-32 (Table S5)
Experimental: as §1, §2

C. jejuni Au-38 = test: as above; format: cell-based; settings: Campylobacter jejuni; for MIC: AU38, read-out: MIC, Au-38 (Table S4); for MBC: AU38, 0.5 mM CuSO4, read-out: MBC, Au-38 (Table S5)
Experimental: as §1, §2

C. jejuni Au-39 = test: as above; format: cell-based; settings: Campylobacter jejuni; for MIC: AU39, read-out: MIC, Au-39 (Table S4); for MBC: AU39, 0.5 mM CuSO4, read-out: MBC, Au-39 (Table S5)
Experimental: as §1, §2

C. jejuni Au-44 = test: as above; format: cell-based; settings: Campylobacter jejuni; for MIC: AU44, read-out: MIC, Au-44 (Table S4); for MBC: AU44, 0.5 mM CuSO4, read-out: MBC, Au-44 (Table S5)
Experimental: as §1, §2

C. jejuni Au-45 = test: as above; format: cell-based; settings: Campylobacter jejuni; for MIC: AU45, read-out: MIC, Au-45 (Table S4); for MBC: AU45, 0.5 mM CuSO4, read-out: MBC, Au-45 (Table S5)
Experimental: as §1, §2

C. jejuni Au-47 = test: as above; format: cell-based; settings: Campylobacter jejuni; for MIC: AU47, read-out: MIC, Au-47 (Table S4); for MBC: AU47, 0.5 mM CuSO4, read-out: MBC, Au-47 (Table S5)
Experimental: as §1, §2

C. jejuni Au-50 = test: as above; format: cell-based; settings: Campylobacter jejuni; for MIC: AU50, read-out: MIC, Au-50 (Table S4); for MBC: AU50, 0.5 mM CuSO4, read-out: MBC, Au-50 (Table S5)
Experimental: as §1, §2

[1] = tested on: C. jejuni (mixture of five strains) in chicken ceca; test: C. jejuni persistence in ceca of 3-week-old colonized chickens; format: in vivo; settings: 3-week-old chickens, oral twice a day for 5 days, approximately 0.127 mg of SM per kg body weight
Experimental: The antimicrobial efficacy of T1, T7, and T8 was also tested on 3-week-old chickens to assess the clearance of C. jejuni load in chicken right after inoculation. Overall, 3-week-old Campylobacter-free chickens were inoculated orally with a mixture of five C. jejuni strains (10^5 CFU/chicken, Supplementary Table S3). Rectal swabs were collected 1 DPI to confirm the intestinal colonization of the birds by C. jejuni (CFU/g of feces). From 2 DPI, chickens were treated orally twice a day for 5 days (from 2 DPI to 7 DPI) with one of the SMs (T1, T7, or T8; approximately 0.127 mg of SM per kg body weight; n = 5–6 chicken per group). Details of the treatment groups and the inoculum are shown in Supplementary Table S3.
For both experiments, C. jejuni colonized-chickens treated with 0.0001% DMSO and colonized chickens without additional carrier treatment (non-treated) were used as controls (n = 3–6 chicken per group). Details of the treatment groups and the inoculum are shown in Supplementary Table S3. Both 3 and 5-week-old chickens were euthanized at 7 DPI using carbon dioxide gas and ceca (cecal content and the pouch) and were aseptically collected. One of the ceca pairs was immediately stored at −80°C for microbiota studies. […]

| SMILES | MIC (C. coli ATCC33559) | MBC (C. coli ATCC33559) | MIC (C. jejuni Au-13) | MBC (C. jejuni Au-13) | MIC (C. jejuni Au-24) | MBC (C. jejuni Au-24) | MIC (C. jejuni Au-32) | MBC (C. jejuni Au-32) | MIC (C. jejuni Au-38) | MBC (C. jejuni Au-38) | MIC (C. jejuni Au-39) | MBC (C. jejuni Au-39) | MIC (C. jejuni Au-44) | MBC (C. jejuni Au-44) | MIC (C. jejuni Au-45) | MBC (C. jejuni Au-45) | MIC (C. jejuni Au-47) | MBC (C. jejuni Au-47) | MIC (C. jejuni Au-50) | MBC (C. jejuni Au-50) | also measured |
| --- | --- | --- | --- | --- | --- | --- | --- | --- | --- | --- | --- | --- | --- | --- | --- | --- | --- | --- | --- | --- | --- |
| CCCNC(=S)Nc1cc(OC)cc(OC)c1 [T1] | 0.31 µg/mL (≈ 1.22 µM) | 0.62 µg/mL (≈ 2.44 µM) | 1.25 µg/mL (≈ 4.91 µM) | 2.5 µg/mL (≈ 9.83 µM) | 0.16 µg/mL (≈ 0.629 µM) | 0.32 µg/mL (≈ 1.26 µM) | 0.62 µg/mL (≈ 2.44 µM) | 1.24 µg/mL (≈ 4.88 µM) | 0.31 µg/mL (≈ 1.22 µM) | 0.62 µg/mL (≈ 2.44 µM) | 0.31 µg/mL (≈ 1.22 µM) | 0.62 µg/mL (≈ 2.44 µM) | 0.31 µg/mL (≈ 1.22 µM) | 0.62 µg/mL (≈ 2.44 µM) | 0.31 µg/mL (≈ 1.22 µM) | 0.62 µg/mL (≈ 2.44 µM) | 0.16 µg/mL (≈ 0.629 µM) | 0.32 µg/mL (≈ 1.26 µM) | 0.31 µg/mL (≈ 1.22 µM) | 0.62 µg/mL (≈ 2.44 µM) | – |
| CC(C)(C)NC(=S)NNc1c(Cl)cncc1Cl [T2] | 0.62 µg/mL (≈ 2.11 µM) | 1.24 µg/mL (≈ 4.23 µM) | 0.31 µg/mL (≈ 1.06 µM) | 0.62 µg/mL (≈ 2.11 µM) | 0.31 µg/mL (≈ 1.06 µM) | 0.62 µg/mL (≈ 2.11 µM) | 0.62 µg/mL (≈ 2.11 µM) | 1.24 µg/mL (≈ 4.23 µM) | 0.62 µg/mL (≈ 2.11 µM) | 1.24 µg/mL (≈ 4.23 µM) | 0.31 µg/mL (≈ 1.06 µM) | 0.62 µg/mL (≈ 2.11 µM) | 0.31 µg/mL (≈ 1.06 µM) | 0.62 µg/mL (≈ 2.11 µM) | 0.62 µg/mL (≈ 2.11 µM) | 1.24 µg/mL (≈ 4.23 µM) | 0.31 µg/mL (≈ 1.06 µM) | 0.62 µg/mL (≈ 2.11 µM) | 0.31 µg/mL (≈ 1.06 µM) | 0.62 µg/mL (≈ 2.11 µM) | – |
| CSc1ccccc1-c1nnc(NC(=O)Cc2ccccc2)o1 [T7] | 0.16 µg/mL (≈ 0.492 µM) | 0.32 µg/mL (≈ 0.983 µM) | 0.31 µg/mL (≈ 0.953 µM) | 0.62 µg/mL (≈ 1.91 µM) | 0.08 µg/mL (≈ 0.246 µM) | 0.16 µg/mL (≈ 0.492 µM) | 0.08 µg/mL (≈ 0.246 µM) | 0.16 µg/mL (≈ 0.492 µM) | 0.16 µg/mL (≈ 0.492 µM) | 0.32 µg/mL (≈ 0.983 µM) | 0.31 µg/mL (≈ 0.953 µM) | 0.62 µg/mL (≈ 1.91 µM) | 0.31 µg/mL (≈ 0.953 µM) | 1.24 µg/mL (≈ 3.81 µM) | 0.16 µg/mL (≈ 0.492 µM) | 0.32 µg/mL (≈ 0.983 µM) | 0.31 µg/mL (≈ 0.953 µM) | 0.62 µg/mL (≈ 1.91 µM) | 0.08 µg/mL (≈ 0.246 µM) | 0.32 µg/mL (≈ 0.983 µM) | reduction in C. jejuni population per gram of cecal contents compared with the DMSO-treated group [1]: 0.9 log |
| CCN(CC)/C(C)=N/C(=O)Nc1ccccc1 [T8] | 0.25 µg/mL (≈ 1.07 µM) | 0.25 µg/mL (≈ 1.07 µM) | 0.06 µg/mL (≈ 0.257 µM) | 0.06 µg/mL (≈ 0.257 µM) | 0.06 µg/mL (≈ 0.257 µM) | 0.06 µg/mL (≈ 0.257 µM) | 0.25 µg/mL (≈ 1.07 µM) | 0.25 µg/mL (≈ 1.07 µM) | 0.06 µg/mL (≈ 0.257 µM) | 0.06 µg/mL (≈ 0.257 µM) | 0.25 µg/mL (≈ 1.07 µM) | 0.25 µg/mL (≈ 1.07 µM) | 0.06 µg/mL (≈ 0.257 µM) | 0.12 µg/mL (≈ 0.514 µM) | 0.25 µg/mL (≈ 1.07 µM) | 0.25 µg/mL (≈ 1.07 µM) | 0.06 µg/mL (≈ 0.257 µM) | 0.06 µg/mL (≈ 0.257 µM) | 0.25 µg/mL (≈ 1.07 µM) | 0.5 µg/mL (≈ 2.14 µM) | – |
